Experimental data reported in PubChem BioAssay (NCI).
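Interpolation was linear, between the two tested concentrations surrounding the appropriate level; five concentrations were tested over 48 hours in 96-well plates. At the GI50, growth is halved. TGI: total growth inhibition.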

Assays:
Assay in all cases: growth of human tumour cells (NCI), 48 h
786-0 renal = test system: 786-0 renal
A498 renal = test system: A498 renal
A549 NSCLC = test system: A549 NSCLC
ACHN renal = test system: ACHN renal
BT-549 breast = test system: BT-549 breast
CAKI-1 renal = test system: CAKI-1 renal
CCRF-CEM leukemia = test system: CCRF-CEM leukemia
COLO 205 colon = test system: COLO 205 colon
DU-145 prostate = test system: DU-145 prostate
EKVX NSCLC = test system: EKVX NSCLC
HCC-2998 colon = test system: HCC-2998 colon
HCT-116 colon = test system: HCT-116 colon
HCT-15 colon = test system: HCT-15 colon
HL-60(TB) leukemia = test system: HL-60(TB) leukemia
HOP-62 NSCLC = test system: HOP-62 NSCLC
HOP-92 NSCLC = test system: HOP-92 NSCLC
HS 578T breast = test system: HS 578T breast
HT29 colon = test system: HT29 colon
IGROV1 ovarian = test system: IGROV1 ovarian
K-562 leukemia = test system: K-562 leukemia
KM12 colon = test system: KM12 colon
LOX IMVI melanoma = test system: LOX IMVI melanoma
M14 melanoma = test system: M14 melanoma
MALME-3M melanoma = test system: MALME-3M melanoma
MCF7 breast = test system: MCF7 breast
MDA-MB-231 breast = test system: MDA-MB-231 breast
MDA-MB-435 = test system: MDA-MB-435
MOLT-4 leukemia = test system: MOLT-4 leukemia
NCI-H226 lung = test system: NCI-H226 lung
NCI-H23 lung = test system: NCI-H23 lung
NCI-H460 lung = test system: NCI-H460 lung
NCI-H522 lung = test system: NCI-H522 lung
NCI/ADR-RES ovarian = test system: NCI/ADR-RES ovarian
OVCAR-3 ovarian = test system: OVCAR-3 ovarian
OVCAR-4 ovarian = test system: OVCAR-4 ovarian
OVCAR-5 ovarian = test system: OVCAR-5 ovarian
OVCAR-8 ovarian = test system: OVCAR-8 ovarian
PC-3 prostate = test system: PC-3 prostate
RPMI-8226 leukemia = test system: RPMI-8226 leukemia
RXF 393 renal = test system: RXF 393 renal
SF-268 CNS = test system: SF-268 CNS
SF-295 CNS = test system: SF-295 CNS
SF-539 CNS = test system: SF-539 CNS
SK-MEL-2 melanoma = test system: SK-MEL-2 melanoma
SK-MEL-28 melanoma = test system: SK-MEL-28 melanoma
SK-MEL-5 melanoma = test system: SK-MEL-5 melanoma
SK-OV-3 ovarian = test system: SK-OV-3 ovarian
SN12C renal = test system: SN12C renal
SNB-19 CNS = test system: SNB-19 CNS
SNB-75 CNS = test system: SNB-75 CNS
SR leukemia = test system: SR leukemia
SW-620 colon = test system: SW-620 colon
T-47D breast = test system: T-47D breast
TK-10 renal = test system: TK-10 renal
U251 CNS = test system: U251 CNS
UACC-257 melanoma = test system: UACC-257 melanoma
UACC-62 melanoma = test system: UACC-62 melanoma
UO-31 renal = test system: UO-31 renal

For O=C1CCC2=C3C4CCCCC4C(=O)C4CCCC(OC2C1)C34 (stereo not drawn), the GI50 (786-0 renal) was 2510 nM, the TGI (786-0 renal) was > 29800 nM and the GI50 (A498 renal) was 31800 nM. The TGI (A498 renal) was > 63100 nM, the GI50 (A549 NSCLC) was 2570 nM and the TGI (A549 NSCLC) was 13200 nM. For the same molecule, the GI50 (ACHN renal) was 382 nM, the GI50 (BT-549 breast) was 1400 nM and the TGI (BT-549 breast) was 6030 nM. For the same molecule, the GI50 (CAKI-1 renal) was 1340 nM, the TGI (CAKI-1 renal) was 5470 nM and the GI50 (CCRF-CEM leukemia) was 1340 nM. The TGI (CCRF-CEM leukemia) was 8080 nM, the GI50 (COLO 205 colon) was 17700 nM and the TGI (COLO 205 colon) was > 72700 nM. For the same molecule, the GI50 (DU-145 prostate) was 357 nM, the TGI (DU-145 prostate) was 2100 nM and the GI50 (EKVX NSCLC) was 12600 nM. For the same molecule, the TGI (EKVX NSCLC) was > 100000 nM, the GI50 (HCC-2998 colon) was 3410 nM and the TGI (HCC-2998 colon) was 15700 nM. For the same molecule, the GI50 (HCT-116 colon) was 316 nM, the TGI (HCT-116 colon) was > 31100 nM and the GI50 (HCT-15 colon) was 472 nM. The TGI (HCT-15 colon) was > 21700 nM, the GI50 (HL-60(TB) leukemia) was 170 nM and the TGI (HL-60(TB) leukemia) was 998 nM. It also gave a GI50 (HOP-62 NSCLC) of 2720 nM, a TGI (HOP-62 NSCLC) of 32800 nM and a GI50 (HOP-92 NSCLC) of 2430 nM. The TGI (HOP-92 NSCLC) was 8950 nM, the GI50 (HS 578T breast) was 1960 nM and the TGI (HS 578T breast) was 6880 nM. For the same molecule, the GI50 (HT29 colon) was 8280 nM, the TGI (HT29 colon) was > 100000 nM and the GI50 (IGROV1 ovarian) was 1640 nM. The TGI (IGROV1 ovarian) was 6150 nM, the GI50 (K-562 leukemia) was 493 nM and the GI50 (KM12 colon) was 1750 nM. For the same molecule, the TGI (KM12 colon) was 5460 nM, the GI50 (LOX IMVI melanoma) was 278 nM and the GI50 (M14 melanoma) was 1280 nM. It also gave a TGI (M14 melanoma) of 4230 nM, a GI50 (MALME-3M melanoma) of 418 nM and a TGI (MALME-3M melanoma) of 1980 nM. The GI50 (MCF7 breast) was 1210 nM, the TGI (MCF7 breast) was > 100000 nM and the GI50 (MDA-MB-231 breast) was 1470 nM. The TGI (MDA-MB-231 breast) was > 27600 nM, the GI50 (MDA-MB-435) was 516 nM and the TGI (MDA-MB-435) was 2080 nM. The GI50 (MOLT-4 leukemia) was 457 nM, the TGI (MOLT-4 leukemia) was 5660 nM and the GI50 (NCI-H226 lung) was > 41200 nM. The TGI (NCI-H226 lung) was > 78900 nM, the GI50 (NCI-H23 lung) was 417 nM and the TGI (NCI-H23 lung) was 2730 nM. For the same molecule, the GI50 (NCI-H460 lung) was 870 nM, the TGI (NCI-H460 lung) was 4570 nM and the GI50 (NCI-H522 lung) was 434 nM. It also gave a TGI (NCI-H522 lung) of 1270 nM, a GI50 (NCI/ADR-RES ovarian) of 360 nM and a TGI (NCI/ADR-RES ovarian) of 4060 nM. For the same molecule, the GI50 (OVCAR-3 ovarian) was 428 nM, the TGI (OVCAR-3 ovarian) was 2730 nM and the GI50 (OVCAR-4 ovarian) was 1790 nM. For the same molecule, the TGI (OVCAR-4 ovarian) was > 25100 nM, the GI50 (OVCAR-5 ovarian) was > 20600 nM and the TGI (OVCAR-5 ovarian) was > 100000 nM. The GI50 (OVCAR-8 ovarian) was 397 nM, the TGI (OVCAR-8 ovarian) was 23700 nM and the GI50 (PC-3 prostate) was 2570 nM. For the same molecule, the TGI (PC-3 prostate) was > 29600 nM, the GI50 (RPMI-8226 leukemia) was 398 nM and the TGI (RPMI-8226 leukemia) was 2650 nM. The GI50 (RXF 393 renal) was 605 nM, the TGI (RXF 393 renal) was 1790 nM and the GI50 (SF-268 CNS) was 471 nM. For the same molecule, the TGI (SF-268 CNS) was > 21800 nM, the GI50 (SF-295 CNS) was 2490 nM and the TGI (SF-295 CNS) was 15500 nM. For the same molecule, the GI50 (SF-539 CNS) was 2440 nM, the TGI (SF-539 CNS) was > 100000 nM and the GI50 (SK-MEL-2 melanoma) was 1380 nM. The TGI (SK-MEL-2 melanoma) was 4140 nM, the GI50 (SK-MEL-28 melanoma) was 4840 nM and the TGI (SK-MEL-28 melanoma) was > 31400 nM. It also gave a GI50 (SK-MEL-5 melanoma) of 729 nM, a TGI (SK-MEL-5 melanoma) of 2350 nM and a GI50 (SK-OV-3 ovarian) of 5180 nM. The TGI (SK-OV-3 ovarian) was > 100000 nM, the GI50 (SN12C renal) was 849 nM and the TGI (SN12C renal) was > 24700 nM. The GI50 (SNB-19 CNS) was 2590 nM, the TGI (SNB-19 CNS) was > 100000 nM and the GI50 (SNB-75 CNS) was 5230 nM. The TGI (SNB-75 CNS) was > 43800 nM, the GI50 (SR leukemia) was 307 nM and the TGI (SR leukemia) was 54800 nM. It also gave a GI50 (SW-620 colon) of 394 nM, a TGI (SW-620 colon) of 3130 nM and a GI50 (T-47D breast) of 3580 nM. The TGI (T-47D breast) was > 100000 nM, the GI50 (TK-10 renal) was 6360 nM and the TGI (TK-10 renal) was > 29500 nM. The GI50 (U251 CNS) was 428 nM, the TGI (U251 CNS) was > 20200 nM and the GI50 (UACC-257 melanoma) was 1650 nM. For the same molecule, the TGI (UACC-257 melanoma) was 4930 nM, the GI50 (UACC-62 melanoma) was 1690 nM and the TGI (UACC-62 melanoma) was 4320 nM. For the same molecule, the GI50 (UO-31 renal) was 487 nM and the TGI (UO-31 renal) was 3880 nM.
